In patent publication US8466113B2, “4-isopropylphenyl glucitol compounds as SGLT1 inhibitors” (Taisho Pharmaceutical Co., Ltd., priority 2009, dated 2013) one finds concentration data, which are given here for 3 compounds.

Each structure is given as a SMILES string.

This data set in a line: Kidney concentrations until one week after single oral administration. The class given is in vivo. The following applies: Sprague-Dawley (SD/IGS), rat, male Sprague-Dawley rats; for concentration at 24 h / concentration at 72 h / concentration at 168 h: single oral 1 mg/kg. As to the method:
(1) Changes in Kidney Concentrations of Compounds Disclosed in WO07/136116 Until One Week After Oral Administration
SD/IGS rats at 7 weeks of age (male, non-fasting, Charles River Laboratories Japan Inc.) were orally administered with compound 10 or 33 (1 mg/kg) or compound 11 (0.3 mg/kg) prepared in a 0.5% aqueous CMC solution. At 24, 72 and 168 hours after drug administration, the rats were exsanguinated via the postcaval vein under ether anesthesia, and their kidneys were excised after they were confirmed to be euthanized. After the tissue surface was washed with physiological saline, each tissue was measured for its weight and homogenized in 4 volumes of purified water under ice cooling. To each homogenate, an acetonitrile/methanol solution containing an internal standard substance was added to remove proteins, and the supernatant was then subjected to LC-MS/MS (Applied Biosystems API3000). Drug-derived ions generated by electrospray ionization in positive ion mode were detected by selective reaction monitoring. The peak area of the resulting extracted ion chromatogram was analyzed by the internal standard method to calculate the drug concentration in the homogenate.
The internal standard substance used for compounds 10 and 33 was (1S)-1,5-anhydro-1-[5-(4-ethoxybenzyl)-2-methoxy-4-methylphenyl]-1-thio-D-glucitol,ethyl-D5, while the internal standard substance used for compound 11 was compound 11 (trishydroxymethyl-D6; —C(CD2OH)3).

[1] abbreviates: read-out: Concentration of compounds in kidney After 1 day.
Setting [2] is: read-out: Concentration of compounds in kidney After 3 days.
Setting [3] is: read-out: Concentration of compounds in kidney After 7 days.

Consider `Cc1cc(O)c([C@@H]2O[C@H](CO)[C@@H](O)[C@H](O)[C@H]2O)cc1Cc1ccc(CCNC(=O)NC(C)(C)CO)cc1` [compound 10], for which, under setting [1], the concentration at 24 h was determined as 167 ± 36.3 ng/g. Besides, the concentration at 72 h under setting [2] worked out at 124 ± 21.2 ng/g. Further, the concentration at 168 h under setting [3] was 53.8 ± 7.61 ng/g.

As to `Cc1cc(O)c([C@@H]2O[C@H](CO)[C@@H](O)[C@H](O)[C@H]2O)cc1Cc1ccc(CCNC(=O)NC(CO)(CO)CO)cc1` [compound 11], under “single oral 0.3 mg/kg, mean ± S.D., read-out: Concentration of compounds in kidney After 1 day”, the concentration at 1 day turned out to be 63.5 ± 20.1 ng/g. Besides, for the setting “single oral 0.3 mg/kg, mean ± S.D., read-out: Concentration of compounds in kidney After 3 days”, the concentration at 3 days worked out at 67.3 ± 3.15 ng/g. The concentration at 7 days (single oral 0.3 mg/kg, mean ± S.D., read-out: Concentration of compounds in kidney After 7 days) was found to be 48.7 ± 18.3 ng/g.

`Cc1cc(O)c([C@@H]2O[C@H](CO)[C@@H](O)[C@H](O)[C@H]2O)cc1Cc1ccc(CCNC(=O)NC2CCN(Cc3ccccc3)CC2)cc1` [compound 33]: the concentration at 24 h under setting [1] worked out at 29.8 ± 6.79 ng/g. Besides, the concentration at 72 h under setting [2] worked out at 25.5 ± 8.68 ng/g. Besides, the concentration at 168 h under setting [3] turned out to be 16.2 ± 3.11 ng/g.
